Data reported in patent US20200237705A1, “METHOD TO TREAT ANTIMICROBIAL RESISTANT CANDIDA” (Hennepin Life Sciences, LLC, priority 2017, published 2020).

Tests used:
Candida = conditions: women of menstrual age; Strandberg et al. 2010; cited from earlier work
[1] = tested on: C. albicans, C. glabrata, C. krusei, C. parapsilosis, and C. pseudotropicalis; conditions: in vitro; Strandberg et al. 2010; cited from earlier work
C. auris = test: Killing of C. auris clinical isolates by GML alone in Todd Hewitt growth medium (plate counts); assay type: cell-based, Candida auris; conditions: two clinical isolates, 37° C., by 8 hours' incubation, limit of detection 10 CFUs/ml
Description: In a first study performed was to test the ability of GML alone to kill two recent clinical isolates of C. auris (FIG. 1). […] The lower limit of detection of Candida is 10 CFUs/ml for these studies.

Glycerol monolaurate [GML]
Numbers of Candida vaginally in women (Candida): can reduce the numbers of Candida vaginally
Ability to kill selected Candida species [1]: ability to kill selected Candida species
GML concentrations at which C. auris is killed (significant killing defined as ≥3 logs killing) (C. auris): ≥ 50 μg/ml
